Measurements published in patent US20100168112A1, “2-Substituted and 4-substituted aryl nitrone compounds” (RENOVIS, INC., priority 2004, published 2010).

Key:
STZ-diabetic rats [1] = experiment: Diabetic neuropathy, mechanical hyperalgesia (paw-withdrawal reflex test, Basile Analgesymeter); format: in vivo, Sprague Dawley (SD) rats; conditions: p.o., bid; for PWT (paw-withdrawal threshold), mechanical hyperalgesia: STZ-diabetic rats, mean ± SEM
Description: In this example, the ability of Compound 62 to produce beneficial effects in protecting against and/or reversing the pathology of neuropathy in a streptozotocin (STZ)-induced rat model of diabetes. To evaluate if chronic treatment with Compound 62 protects the diabetic animals from developing neuropathy, they were examined for mechanical hyperalgesia responses.
(§1) Adult male Sprague Dawley (SD) rats weighing 250-300 gm (Charles River Laboratories, San Diego, Calif.) were used. The animal room was lighted artificially at a 12-hr light-dark cycle (from 7:00 A.M. to 7:00 P.M.) with water and food supply ad libitum. Animals were allocated randomly into groups. Forty-nine (49) days prior to the behavioral tests, rats received a bolus injection of STZ (75 mg/kg, i.v.). STZ was dissolved in 0.1 M sodium citrate buffer, pH 4.5 solution, at the concentration of 75 mg/ml. To ensure the development of hyperglycemia, their non-fasted levels of glucose in whole blood, obtained via tail veins, were evaluated, using a glocometer (Accucheck®, Roche Diagnostics, Palo Alto, Calif.), once a week. Animals failing to show hyperglycemic conditions (i.e., whole blood glucose>120 mg/dL) were removed from the study. Diabetic rats were treated orally with Compound 62 (5 mg/kg or 25 mg/kg, both bid) or vehicle (1 ml/kg, bid), starting the date of STZ-injection. Compound 62 was dissolved in vehicle, which is composed of 96% of 0.5% CMC and 4% of 10% Tween 80. As a control, a group of naive rats received oral Compound 62 (25 mg/kg, bid) or vehicle (1 ml/kg, bid) treatment. Each group had >12 rats. Time-effect curves of the STZ diabetic rats (Compound 62 vs. Vehicle) were compared with each other, while curves of the naive rats (Compound 62 vs. Vehicle) were compared with each other. The comparisons were conducted, using two-way (group×time) repeated measures analysis of variance (ANOVA) followed by Fishers post-hoc test. A probability value of p<0.05 was considered as statistically significant.
Before the experiments, these rats were trained in the paw-withdrawal reflex test, using a Basile Analgesymeter (Ugo Basile, Biological Research Apparatus, Comerio VA, Italy), which applies a linearly increasing mechanical force to the dorsum of the rats hind paw. The training of mechanical nociceptive flexion reflex response was performed on lightly restrained rats, at 5-min intervals for 1 hr each day for a period of 5 days. On the day of the experiment, paw-withdrawal thresholds (PWT) (i.e., mechanical force that causes the animal to withdraw its paw from the stimulus) were measured at 5-min intervals for 1 hr. The mean was obtained from the average of the last 6 PWT readings. […]

STZ-diabetic rats [2] = experiment: Diabetic neuropathy, mechanical allodynia (von Frey filaments); format: in vivo, rat; conditions: 25 mg/kg, p.o., bid, x49 d
Protocol: as §1, with “Time-effect curves of the STZ diabetic rats (Compound 62 vs. Vehicle) were compared with each other, while curves of the naive rats (Compound 62 vs. Vehicle) were compared with each other. The comparisons were conducted, using two-way (group×time) repeated measures analysis of variance (ANOVA) followed by Fishers post-hoc test. A probability value of p<0.05 was considered as statistically significant.” left out

CC(C)(C)/[N+]([O-])=C/c1ccc(S(C)(=O)=O)cc1 [Compound 62, N-tert-Butyl-C-[4-(methanesulfonyl)phenyl]nitrone]
significantly reversed mechanical hyperalgesia compared with vehicle-treated STZ-diabetic rats (in words) (STZ-diabetic rats [1]; 5 mg/kg, x49 d): not
reversal of mechanical hyperalgesia compared with vehicle-treated STZ-diabetic rats (in words) (STZ-diabetic rats [1]; 25 mg/kg, x49 d): significantly reversed mechanical hyperalgesia
PWT (paw-withdrawal threshold), mechanical hyperalgesia (STZ-diabetic rats [1]; 5 mg/kg, x49 d (low dose, 62L)): 70.29 ± 3.18 GRAMS
PWT (paw-withdrawal threshold), mechanical hyperalgesia (STZ-diabetic rats [1]; 25 mg/kg, x49 d (high dose, 62H)): 86.86 ± 4.79 GRAMS
effect on PWT / reversal of allodynia vs vehicle (in words) (STZ-diabetic rats [2]): significantly enhanced the PWT
PWT (von Frey), mechanical allodynia (STZ-diabetic rats [2]; mean ± SEM): 6.08 ± 0.94 GRAMS
